Laboratory results from the supplement of paper PMC10307832.

Experiments:
Assay in all cases: relative viability (nuclei count vs DMSO), 5 days (fraction); higher = more cells survive
[1] = compound: C1/C(=C\C2=CC=CS2)/C(=O)/C(=C/C3=CC=CS3)/C1 + CC(=O)c1c(C)c2cnc(Nc3ccc(N4CCNCC4)cn3)nc2n(C2CCCC2)c1=O [Palbociclib] (partner 0.5 µM)
Outline: (§1)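 Cells from lung cancer lines were seeded into 1536-well plates and, one day later, dosed by pin tool. Treatments were either a single drug or a fixed dose of an anchor drug with five library-drug doses (not always all listed) in √10 steps. After 5 days, nuclei were stained in a one-step fixation (final 0.05% Triton X-100, 1% formaldehyde, 1 ug/ml Hoechst) and counted on 4× images, and relative viability is the treated-to-vehicle nuclei ratio, as the median of duplicate plates.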

[2] = compound: C1=CC(=CC=C1C2=CC(=C(S2)NC(=O)N)C(=O)N)F [TPCA-1] + N=C(N)NC(=N)NCCc1ccccc1 [Phenformin] (partner 250 µM)
Outline: as §1

[3] = compound: C1=CC(=CC=C1C2=CC(=C(S2)NC(=O)N)C(=O)N)F [TPCA-1] + O=C(c1cc(Cc2n[nH]c(=O)c3ccccc23)ccc1F)N1CCN(C(=O)C2CC2)CC1 [Olaparib] (partner 8 µM)
Outline: as §1

[4] = compound: C[C@]12O[C@H](C[C@]1(O)CO)n1c3ccccc3c3c4c(c5c6ccccc6n2c5c31)CNC4=O [Lestaurtinib] + N=C(N)NC(=N)NCCc1ccccc1 [Phenformin] (partner 250 µM)
Outline: as §1

Cell Line: NCI-H1993
- relative viability ([1]; first compound 0.2 µM): 0.643
- relative viability ([1]; first compound 0.6325 µM): 0.639
- relative viability ([1]; first compound 2 µM): 0.595
- relative viability ([1]; first compound 6.325 µM): 0.562
- relative viability ([1]; first compound 20 µM): 0.646
- relative viability ([2]; first compound 0.04 µM): 0.425
- relative viability ([2]; first compound 0.1265 µM): 0.536
- relative viability ([2]; first compound 0.4 µM): 0.55
- relative viability ([2]; first compound 1.265 µM): 0.421
- relative viability ([2]; first compound 4 µM): 0.485
- relative viability ([3]; first compound 0.04 µM): 1.23
- relative viability ([3]; first compound 0.1265 µM): 1.03
- relative viability ([3]; first compound 0.4 µM): 0.958
- relative viability ([3]; first compound 1.265 µM): 1.07
- relative viability ([3]; first compound 4 µM): 0.99
- relative viability ([4]; first compound 0.005 µM): 0.559
- relative viability ([4]; first compound 0.01581 µM): 0.547
- relative viability ([4]; first compound 0.05 µM): 0.527
- relative viability ([4]; first compound 0.1581 µM): 0.457
- relative viability ([4]; first compound 0.5 µM): 0.486

Cell Line: NCI-H23
- relative viability ([1]; first compound 0.2 µM): 0.553
- relative viability ([1]; first compound 0.6325 µM): 0.557
- relative viability ([1]; first compound 2 µM): 0.551
- relative viability ([1]; first compound 6.325 µM): 0.478
- relative viability ([1]; first compound 20 µM): 0.462
- relative viability ([2]; first compound 0.04 µM): 0.813
- relative viability ([2]; first compound 0.1265 µM): 0.764
- relative viability ([2]; first compound 0.4 µM): 0.759
- relative viability ([2]; first compound 1.265 µM): 0.681
- relative viability ([2]; first compound 4 µM): 0.353
- relative viability ([3]; first compound 0.04 µM): 0.317
- relative viability ([3]; first compound 0.1265 µM): 0.234
- relative viability ([3]; first compound 0.4 µM): 0.285
- relative viability ([3]; first compound 1.265 µM): 0.353
- relative viability ([3]; first compound 4 µM): 0.192
- relative viability ([4]; first compound 0.005 µM): 0.835
- relative viability ([4]; first compound 0.01581 µM): 0.756
- relative viability ([4]; first compound 0.05 µM): 0.762
- relative viability ([4]; first compound 0.1581 µM): 0.813
- relative viability ([4]; first compound 0.5 µM): 0.457

Cell Line: SW 900
- relative viability ([1]; first compound 0.2 µM): 0.578
- relative viability ([1]; first compound 0.6325 µM): 0.524
- relative viability ([1]; first compound 2 µM): 0.616
- relative viability ([1]; first compound 6.325 µM): 0.451
- relative viability ([1]; first compound 20 µM): 0.653
- relative viability ([2]; first compound 0.04 µM): 0.79
- relative viability ([2]; first compound 0.1265 µM): 0.577
- relative viability ([2]; first compound 0.4 µM): 0.518
- relative viability ([2]; first compound 1.265 µM): 0.395
- relative viability ([2]; first compound 4 µM): 0.529
- relative viability ([3]; first compound 0.4 µM): 0.894
- relative viability ([3]; first compound 1.265 µM): 0.935
- relative viability ([3]; first compound 4 µM): 0.644
- relative viability ([4]; first compound 0.005 µM): 0.69
- relative viability ([4]; first compound 0.01581 µM): 0.715
- relative viability ([4]; first compound 0.05 µM): 0.63
- relative viability ([4]; first compound 0.1581 µM): 0.803
- relative viability ([4]; first compound 0.5 µM): 0.4

Cell Line: NCI-H1437
- relative viability ([1]; first compound 0.2 µM): 0.322
- relative viability ([1]; first compound 0.6325 µM): 0.314
- relative viability ([1]; first compound 2 µM): 0.282
- relative viability ([1]; first compound 6.325 µM): 0.307
- relative viability ([1]; first compound 20 µM): 0.336
- relative viability ([2]; first compound 0.04 µM): 0.336
- relative viability ([2]; first compound 0.1265 µM): 0.297
- relative viability ([2]; first compound 0.4 µM): 0.277
- relative viability ([2]; first compound 1.265 µM): 0.297
- relative viability ([2]; first compound 4 µM): 0.299
- relative viability ([3]; first compound 0.04 µM): 0.665
- relative viability ([3]; first compound 0.1265 µM): 0.637
- relative viability ([3]; first compound 0.4 µM): 0.611
- relative viability ([3]; first compound 1.265 µM): 0.591
- relative viability ([3]; first compound 4 µM): 0.618
- relative viability ([4]; first compound 0.005 µM): 0.343
- relative viability ([4]; first compound 0.01581 µM): 0.349
- relative viability ([4]; first compound 0.05 µM): 0.241
- relative viability ([4]; first compound 0.1581 µM): 0.292
- relative viability ([4]; first compound 0.5 µM): 0.16

Cell Line: NCI-H1299
- relative viability ([3]; first compound 0.04 µM): 0.947
- relative viability ([3]; first compound 0.1265 µM): 0.963
- relative viability ([3]; first compound 0.4 µM): 0.941
- relative viability ([3]; first compound 1.265 µM): 0.932
- relative viability ([3]; first compound 4 µM): 0.939

Cell Line: NCI-H1563
- relative viability ([2]; first compound 0.04 µM): 0.712
- relative viability ([2]; first compound 0.1265 µM): 0.653
- relative viability ([2]; first compound 0.4 µM): 0.712
- relative viability ([2]; first compound 1.265 µM): 0.603
- relative viability ([2]; first compound 4 µM): 0.667
- relative viability ([4]; first compound 0.005 µM): 0.625
- relative viability ([4]; first compound 0.01581 µM): 0.711
- relative viability ([4]; first compound 0.05 µM): 0.677
- relative viability ([4]; first compound 0.1581 µM): 0.577
- relative viability ([4]; first compound 0.5 µM): 0.58

Cell Line: NCI-H596
- relative viability ([2]; first compound 0.04 µM): 0.857
- relative viability ([2]; first compound 0.1265 µM): 0.678
- relative viability ([2]; first compound 0.4 µM): 0.764
- relative viability ([2]; first compound 1.265 µM): 0.746
- relative viability ([2]; first compound 4 µM): 0.658
- relative viability ([3]; first compound 0.04 µM): 0.722
- relative viability ([3]; first compound 0.1265 µM): 0.674
- relative viability ([3]; first compound 0.4 µM): 0.671
- relative viability ([3]; first compound 1.265 µM): 0.828
- relative viability ([3]; first compound 4 µM): 0.479
- relative viability ([4]; first compound 0.005 µM): 0.699
- relative viability ([4]; first compound 0.01581 µM): 0.88
- relative viability ([4]; first compound 0.05 µM): 0.557
- relative viability ([4]; first compound 0.1581 µM): 0.882
- relative viability ([4]; first compound 0.5 µM): 0.723

Cell Line: Calu-6
- relative viability ([3]; first compound 0.04 µM): 0.671
- relative viability ([3]; first compound 0.1265 µM): 0.57
- relative viability ([3]; first compound 0.4 µM): 0.553
- relative viability ([3]; first compound 1.265 µM): 0.539
- relative viability ([3]; first compound 4 µM): 0.511

Cell Line: NCI-H1703
- relative viability ([3]; first compound 0.04 µM): 0.443
- relative viability ([3]; first compound 0.1265 µM): 0.39
- relative viability ([3]; first compound 0.4 µM): 0.433
- relative viability ([3]; first compound 1.265 µM): 0.398
- relative viability ([3]; first compound 4 µM): 0.424

Cell Line: EBC-1
- relative viability ([3]; first compound 0.04 µM): 0.759
- relative viability ([3]; first compound 0.1265 µM): 0.606
- relative viability ([3]; first compound 0.4 µM): 0.784
- relative viability ([3]; first compound 1.265 µM): 0.727
- relative viability ([3]; first compound 4 µM): 0.715

Cell Line: NCI-H1648
- relative viability ([1]; first compound 0.2 µM): 0.271
- relative viability ([1]; first compound 0.6325 µM): 0.497
- relative viability ([1]; first compound 2 µM): 0.271
- relative viability ([1]; first compound 6.325 µM): 0.262
- relative viability ([1]; first compound 20 µM): 0.288
- relative viability ([3]; first compound 0.04 µM): 0.799
- relative viability ([3]; first compound 0.1265 µM): 0.81
- relative viability ([3]; first compound 0.4 µM): 0.626
- relative viability ([3]; first compound 1.265 µM): 1.1
- relative viability ([3]; first compound 4 µM): 0.933

Cell Line: A549
- relative viability ([2]; first compound 0.04 µM): 0.206
- relative viability ([2]; first compound 0.1265 µM): 0.162
- relative viability ([2]; first compound 0.4 µM): 0.151
- relative viability ([2]; first compound 1.265 µM): 0.141
- relative viability ([2]; first compound 4 µM): 0.0882
- relative viability ([3]; first compound 0.04 µM): 0.342
- relative viability ([3]; first compound 0.1265 µM): 0.313
- relative viability ([3]; first compound 0.4 µM): 0.507
- relative viability ([3]; first compound 1.265 µM): 0.201
- relative viability ([3]; first compound 4 µM): 0.0946
- relative viability ([4]; first compound 0.005 µM): 0.204
- relative viability ([4]; first compound 0.01581 µM): 0.141
- relative viability ([4]; first compound 0.05 µM): 0.16
- relative viability ([4]; first compound 0.1581 µM): 0.1
- relative viability ([4]; first compound 0.5 µM): 0.045
